Assay results published in ChEMBL document CHEMBL1949518, “Synthesis and biological evaluation of some new 2-pyrazolines bearing benzene sulfonamide moiety as potential anti-inflammatory and anti-cancer agents” (Eur J Med Chem, 2011).

How the values were obtained:
Format in all cases: functional
U-251 = assay: Antiproliferative activity against human U251 cells assessed as cell growth at 10^-5 M after 48 hrs by SRB assay relative to control; settings: U-251, 48 h, read-out: Activity
HL-60(TB) = assay: Antiproliferative activity against human HL-60(TB) cells assessed as cell growth at 10^-5 M after 48 hrs by SRB assay relative to control; settings: HL-60, 48 h, read-out: Activity
NCI-H522 = assay: Antiproliferative activity against human NCI-H522 cells assessed as cell growth at 10^-5 M after 48 hrs by SRB assay relative to control; settings: NCI-H522, 48 h, read-out: Activity
MDA-MB-468 = assay: Antiproliferative activity against human MDA-MB-468 cells assessed as cell growth at 10^-5 M after 48 hrs by SRB assay relative to control; settings: MDA-MB-468, 48 h, read-out: Activity
SW-620 = assay: Antiproliferative activity against human SW620 cells assessed as cell growth at 10^-5 M after 48 hrs by SRB assay relative to control; settings: SW-620, 48 h, read-out: Activity
SN12C = assay: Antiproliferative activity against human SN12C cells assessed as cell growth at 10^-5 M after 48 hrs by SRB assay relative to control; settings: read-out: Activity
NCI-H23 = assay: Antiproliferative activity against human NCI-H23 cells assessed as cell growth at 10^-5 M after 48 hrs by SRB assay relative to control; settings: NCI-H23, 48 h, read-out: Activity
HCT-116 = assay: Antiproliferative activity against human HCT116 cells assessed as cell growth at 10^-5 M after 48 hrs by SRB assay relative to control; settings: HCT-116, 48 h, read-out: Activity
SR = assay: Antiproliferative activity against human SR cells assessed as cell growth at 10^-5 M after 48 hrs by SRB assay relative to control; settings: read-out: Activity
RXF 393 = assay: Antiproliferative activity against human RXF393 cells assessed as cell growth at 10^-5 M after 48 hrs by SRB assay relative to control; settings: RXF 393, 48 h, read-out: Activity
SK-OV-3 = assay: Antiproliferative activity against human SKOV3 cells assessed as cell growth at 10^-5 M after 48 hrs by SRB assay relative to control; settings: SK-OV-3, 48 h, read-out: Activity
A549 = assay: Antiproliferative activity against human A549 cells assessed as cell growth at 10^-5 M after 48 hrs by SRB assay relative to control; settings: A549, 48 h, read-out: Activity
SK-MEL-28 = assay: Antiproliferative activity against human SK-MEL-28 cells assessed as cell growth at 10^-5 M after 48 hrs by SRB assay relative to control; settings: SK-MEL-28, 48 h, read-out: Activity
ACHN = assay: Antiproliferative activity against human ACHN cells assessed as cell growth at 10^-5 M after 48 hrs by SRB assay relative to control; settings: read-out: Activity
T47D = assay: Antiproliferative activity against human T47D cells assessed as cell growth at 10^-5 M after 48 hrs by SRB assay relative to control; settings: read-out: Activity
LOX IMVI = assay: Antiproliferative activity against human LOXIMVI cells assessed as cell growth at 10^-5 M after 48 hrs by SRB assay relative to control; settings: read-out: Activity
SNB-75 = assay: Antiproliferative activity against human SNB75 cells assessed as cell growth at 10^-5 M after 48 hrs by SRB assay relative to control; settings: SNB-75, 48 h, read-out: Activity
A498 = assay: Antiproliferative activity against human A498 cells assessed as cell growth at 10^-5 M after 48 hrs by SRB assay relative to control; settings: A498, 48 h, read-out: Activity
K562 = assay: Antiproliferative activity against human K562 cells assessed as cell growth at 10^-5 M after 48 hrs by SRB assay relative to control; settings: K562, 48 h, read-out: Activity
HCT-15 = assay: Antiproliferative activity against human HCT15 cells assessed as cell growth at 10^-5 M after 48 hrs by SRB assay relative to control; settings: HCT-15, 48 h, read-out: Activity
DU-145 = assay: Antiproliferative activity against human DU145 cells assessed as cell growth at 10^-5 M after 48 hrs by SRB assay relative to control; settings: DU-145, 48 h, read-out: Activity
MDA-MB-435 = assay: Antiproliferative activity against human MDA-MB-435 cells assessed as cell growth at 10^-5 M after 48 hrs by SRB assay relative to control; settings: MDA-MB-435, 48 h, read-out: Activity
OVCAR-8 = assay: Antiproliferative activity against human OVCAR8 cells assessed as cell growth at 10^-5 M after 48 hrs by SRB assay relative to control; settings: OVCAR-8, 48 h, read-out: Activity
BT-549 = assay: Antiproliferative activity against human BT549 cells assessed as cell growth at 10^-5 M after 48 hrs by SRB assay relative to control; settings: BT-549, 48 h, read-out: Activity
NCI-H226 = assay: Antiproliferative activity against human NCI-H226 cells assessed as cell growth at 10^-5 M after 48 hrs by SRB assay relative to control; settings: NCI-H226, 48 h, read-out: Activity
UACC-257 = assay: Antiproliferative activity against human UACC257 cells assessed as cell growth at 10^-5 M after 48 hrs by SRB assay relative to control; settings: UACC-257, 48 h, read-out: Activity
NCI/ADR-RES = assay: Antiproliferative activity against human NCI/ADR-RES cells assessed as cell growth at 10^-5 M after 48 hrs by SRB assay relative to control; settings: read-out: Activity
SNB-19 = assay: Antiproliferative activity against human SNB19 cells assessed as cell growth at 10^-5 M after 48 hrs by SRB assay relative to control; settings: SNB-19, 48 h, read-out: Activity
NCI-H460 = assay: Antiproliferative activity against human NCI-H460 cells assessed as cell growth at 10^-5 M after 48 hrs by SRB assay relative to control; settings: NCI-H460, 48 h, read-out: Activity
OVCAR-3 = assay: Antiproliferative activity against human OVCAR3 cells assessed as cell growth at 10^-5 M after 48 hrs by SRB assay relative to control; settings: OVCAR-3, 48 h, read-out: Activity
RPMI-8226 = assay: Antiproliferative activity against human RPMI8226 cells assessed as cell growth at 10^-5 M after 48 hrs by SRB assay relative to control; settings: RPMI-8226, 48 h, read-out: Activity
HT-29 = assay: Antiproliferative activity against human HT-29 cells assessed as cell growth at 10^-5 M after 48 hrs by SRB assay relative to control; settings: HT-29, 48 h, read-out: Activity
COLO 205 = assay: Antiproliferative activity against human COLO205 cells assessed as cell growth at 10^-5 M after 48 hrs by SRB assay relative to control; settings: COLO 205, 48 h, read-out: Activity

Compound	growth at 10 µM (U-251) [%]	growth at 10 µM (HL-60(TB)) [%]	growth at 10 µM (NCI-H522) [%]	growth at 10 µM (MDA-MB-468) [%]	growth at 10 µM (SW-620) [%]	growth at 10 µM (SN12C) [%]	growth at 10 µM (NCI-H23) [%]	growth at 10 µM (HCT-116) [%]	growth at 10 µM (SR) [%]	growth at 10 µM (RXF 393) [%]	growth at 10 µM (SK-OV-3) [%]	growth at 10 µM (A549) [%]	growth at 10 µM (SK-MEL-28) [%]	growth at 10 µM (ACHN) [%]	growth at 10 µM (T47D) [%]	growth at 10 µM (LOX IMVI) [%]	growth at 10 µM (SNB-75) [%]	growth at 10 µM (A498) [%]	growth at 10 µM (K562) [%]	growth at 10 µM (HCT-15) [%]	further results
Cc1cc(O)c(C2=NN(c3ccc(S(N)(=O)=O)cc3)C(c3ccc(Cl)cc3)C2)c(C)c1Cl (centres undefined)	78.3	24.1	39.8	91.1	72.2	74.8	79.3	41.1	-22.2	93.4	106	40.8	90.2	88.6	37	82.8	78.7	74.3	25	80.5	growth at 10 µM (DU-145): 75.2%; growth at 10 µM (MDA-MB-435): 69.3%; growth at 10 µM (OVCAR-8): 75.2%; growth at 10 µM (BT-549): 95.7%; growth at 10 µM (NCI-H226): 88.8%; growth at 10 µM (UACC-257): 97.6%; growth at 10 µM (NCI/ADR-RES): 85.7%; growth at 10 µM (SNB-19): 107%; growth at 10 µM (NCI-H460): 47.1%; growth at 10 µM (OVCAR-3): 80.3%; growth at 10 µM (RPMI-8226): 25.5%; growth at 10 µM (HT-29): 52.7%; growth at 10 µM (COLO 205): 76.2%
Cc1cc(O)c(C2=NN(c3ccc(S(N)(=O)=O)cc3)C(c3ccc(N(C)C)cc3)C2)c(C)c1Cl (centres undefined)	70	18.4	57.7	43.7	48.5	36.1	78.8	55.1	-24.1	48.1	81.6	33.2	76.3	58.7	46.9	52.4	67.4	87.2	21	65.2	growth at 10 µM (DU-145): 49.3%; growth at 10 µM (MDA-MB-435): 38.6%; growth at 10 µM (OVCAR-8): 5.73%; growth at 10 µM (BT-549): 112%; growth at 10 µM (NCI-H226): 106%; growth at 10 µM (UACC-257): 74.1%; growth at 10 µM (NCI/ADR-RES): 80.3%; growth at 10 µM (SNB-19): 89.8%; growth at 10 µM (NCI-H460): 3.35%; growth at 10 µM (OVCAR-3): 68%; growth at 10 µM (RPMI-8226): -37.6%; growth at 10 µM (HT-29): 55.1%; growth at 10 µM (COLO 205): 30.8%
COc1ccc(C2CC(c3c(O)cc(C)c(Cl)c3C)=NN2c2ccc(S(N)(=O)=O)cc2)cc1 (centres undefined)	91.3	69.1	71.5	91.5	94.8	99.4	108	75.5	41.5	111	101	56	96.7	96.7	62.1	70.6	85.1	93.2	44.1	92.2	growth at 10 µM (DU-145): 92.4%; growth at 10 µM (MDA-MB-435): 79.3%; growth at 10 µM (OVCAR-8): 101%; growth at 10 µM (BT-549): 119%; growth at 10 µM (NCI-H226): 98.7%; growth at 10 µM (UACC-257): 103%; growth at 10 µM (NCI/ADR-RES): 101%; growth at 10 µM (SNB-19): 92.7%; growth at 10 µM (NCI-H460): 62%; growth at 10 µM (OVCAR-3): 102%; growth at 10 µM (RPMI-8226): 63.9%; growth at 10 µM (HT-29): 109%; growth at 10 µM (COLO 205): 102%
